Data published in patent US8518460B2, “Use of total coumarins of cnidium fruit in preparing medicaments for treating psoriasis” (priority 2002, dated 2013).

Test system: swelling of rat toes induced by egg-white
Experiment: Swelling of rat toes induced by egg-white injection
Format: in vivo, rats
Conditions: 0.3 g ointment per toe, repeated after 0.5 hour
Method: 50 SD rats, 150 g±10 g, were divided randomly into five groups. The volume of the toes at the same side of rats among the 5 groups was measured. 10% of egg white was injected into the toes, 0.2 ml each toe. After that, rats of two groups were anointed respectively with 0.15 g and 0.3 g of an ointment of total coumarins (containing 10% total coumarins) at each toe. Rats of other two groups were respectively anointed with 0.3 g of a blank ointment and 0.3 g of an ointment of anthralin at each toe. The rest one group was treated nothing as a control. 0.5 hour later, the above treatment was repeated. At 1st, 2nd, 4th, and 6th hour the volume of the toes were measured. The difference of the volume was regarded as the degree of the swelling of the toes.

## O=C1c2c(O)cccc2Cc2cccc(O)c21 [Anthralin, anthralin]
1 h
  Degree of toe swelling (volume increase): 0.408 ± 0.201 mL
2 h
  Degree of toe swelling (volume increase): 0.391 ± 0.209 mL
4 h
  Degree of toe swelling (volume increase): 0.375 ± 0.189 mL
6 h
  Degree of toe swelling (volume increase): 0.351 ± 0.165 mL
